Results published in BindingDB's records for doi:10.1016/j.ejmech.2023.115292 (National Research Centre, 2023).

Key:
[1] = Inhibition of SARS-CoV-2 RdRp transfected in HEK293T cells incubated for 24 hrs by […]
[2] = Inhibition of SARS-CoV-2 RdRp transfected in human A549 cells incubated for 24 hrs by […]

Row | Compound | EC50 [1] | EC50 [2]
1 | Cc1cccc(C(=O)CSc2c[nH]c3ccccc23)c1 | 2530 nM | 
2 | O=C(CSc1c[nH]c2ccccc12)c1ccc(Cl)c(Cl)c1 | 2750 nM | 
3 | CCOc1cccc(CNC(=O)CSc2cn(C(=O)OC(C)(C)C)c3ccccc23)c1 | 1410 nM | 1180 nM
